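Where inhibition never reached the appropriate level, the endpoint shown equals the highest concentration tested. Otherwise, values were interpolated linearly from a five-concentration, 48-hour dose response in 96-well plates. GI50 is the concentration that inhibits growth by half. TGI: concentration producing complete growth inhibition.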
Key:
Assay in all cases: NCI tumour cell line growth inhibition, 48 h
[1] = tested on: M19-MEL melanoma
[2] = tested on: SN12K1 renal
[3] = tested on: HOP-18 NSCLC
[4] = tested on: XF 498 CNS
[5] = tested on: KM20L2 colon
[6] = tested on: P388 leukemia
[7] = tested on: SNB-78 CNS
[8] = tested on: P388/ADR leukemia
[9] = tested on: RXF-631 renal

| SMILES | TGI [1] [µM] | TGI [2] [µM] | TGI [3] [µM] | TGI [4] [µM] | TGI [5] [µM] | TGI [6] [µM] | TGI [7] [µM] | TGI [8] [µM] | TGI [9] [µM] | GI50 [3] [µM] |
| --- | --- | --- | --- | --- | --- | --- | --- | --- | --- | --- |
| CCCCCCCCCCCCCCCCNCC(O)CN (configuration not stated) | 5.79 | 3.44 | 14 | 23.9 | 7.19 | 2.68 | 5.83 | – | – | – |
| Nc1ncnc2c1ncn2CCCC(c1ccccc1)P(=O)(O)O (configuration not stated) | > 100 | – | – | > 100 | > 100 | – | > 100 | – | – | – |
| C=C1C2C[C@@H]3OC4CC5O[C@]6(CC5OC4C(C)C3OC(=O)CC3CC[C@@H]4OC5C7OC8C[C@](CCC9CC(=C)[C@H](CCC(C[C@H]1C)O2)O9)(OC7C4O3)O[C@@H]85)C[C@@H]1O[C@@]2(CC(C)[C@@H]3OC(CC(=O)CCO)C(O)C[C@@H]3O2)CC(C)[C@@H]1O6 (some centres not stated) | – | – | – | – | < 0.001 | – | 1.98 | – | – | – |
| CC(=O)Oc1c2c(c(OC(C)=O)c3c1n(C(C)=O)c1ccccc1n3C(C)=O)n(C(C)=O)c1ccccc1n2C(C)=O | 14.4 | – | – | – | – | – | – | – | – | – |
| C[N+](C)(C)CCOC(=O)/C=C/c1cnc[nH]1 | > 500 | > 500 | > 500 | > 500 | > 500 | > 500 | > 500 | > 316 | – | – |
| N=c1n(CC(=O)NC23CC4CC(CC(C4)C2)C3)c2ccccc2n1CC(=O)NC12CC3CC(CC(C3)C1)C2 | 3.09 | – | 4.5 | 2.93 | 3.2 | – | 6.38 | – | – | – |
| C[N+](C)=c1ccc2nc3c(ccc4ccccc43)oc-2c1 | 12.5 | – | 23.6 | 27.4 | 27.1 | – | 20.8 | – | 20.8 | – |
| Nc1ncnc2c1sc(=S)n2-c1ccccc1 | > 100 | – | > 100 | > 100 | > 100 | – | > 100 | – | – | – |
| C/C=C/c1cc2c(c(=O)o1)C(=O)[C@@H](O)[C@H](C)O2 | 27.2 | 31.8 | 31.9 | – | 30.5 | 7.15 | 42 | – | – | – |
| N#CNC(=NCc1ccccc1)NCCc1c[nH]c2ccccc12 | > 100 | – | – | > 100 | > 100 | – | > 100 | – | – | – |
| O=C(NC12CC3CC(CC(C3)C1)C2)C(=O)c1c[nH]c2ccc(Br)cc12 | – | – | 44.1 | – | > 100 | – | > 100 | – | – | – |
| COc1ccc(C2S/C(=C\c3cccc(OC)c3)C(=O)N2NC(=O)Cc2ccccc2)cc1 (configuration not stated) | > 100 | – | > 100 | – | – | – | – | – | – | – |
| COc1cccc2c1C(=O)c1c(O)c3c(c(O)c1C2=O)C[C@@](O)(C(=O)CN1CCOCC1)C[C@@H]3OC1CC(N)C(O)C(C)O1 (some centres not stated) | 18.1 | 30.1 | 22 | 8.33 | 71.5 | 2.29 | – | 71.7 | – | 1.43 |
| NC(=O)COc1c(Br)cc(Br)cc1Br | > 100 | – | – | > 100 | > 100 | – | – | – | > 100 | – |
| COC1=CC(=O)C2C(C1=O)[C@@H]1c3ccccc3OC(C)(C)[C@H]21 (some centres not stated) | 34.5 | – | – | 32.1 | 66.3 | – | 41.5 | – | – | – |
| Brc1c2nc3ccccc3nc2n2ccc3ccccc3c12 | > 100 | – | – | > 100 | > 100 | – | > 100 | – | – | – |
| N=S(=O)(c1ccccc1)c1ccccc1 | > 100 | – | > 100 | – | > 100 | – | > 100 | – | – | – |

Reference: PubChem BioAssay (NCI)
